From the NIST ThermoML archive (doi:10.1016/j.jct.2003.12.005)

How the values were obtained:
[1] = xn = mol fraction of the nth substance listed; details: 101.3 kPa, Liquid
[2] = 101.3 kPa, Liquid

CCCCCCCCCCCC [dodecane] + CCC(C)O
[1]
Details	mass density, 293.15 K [kg/m3]	mass density, 298.15 K [kg/m3]	mass density, 303.15 K [kg/m3]	speed of sound, 293.15 K [m/s]	speed of sound, 298.15 K [m/s]	speed of sound, 303.15 K [m/s]	viscosity, 293.15 K [mPa·s]	viscosity, 298.15 K [mPa·s]	viscosity, 303.15 K [mPa·s]
x2 = 0	748.5	744.9	741.3	1297	1278	1259	1.454	1.327	1.219
x2 = 0.0486	749.3	745.6	741.9	1293	1274	1255	1.44	1.314	1.204
x2 = 0.0976	750.2	746.4	742.7	1289	1270	1251	1.431	1.305	1.194
x2 = 0.2046	752.5	748.7	744.9	1282	1263	1243	1.429	1.299	1.188
x2 = 0.2956	754.9	751.1	747.2	1276	1256	1237	1.432	1.297	1.179
x2 = 0.3959	758.1	754.2	750.3	1268	1249	1230	1.457	1.316	1.196
x2 = 0.4979	762.2	758.3	754.3	1261	1242	1222	1.503	1.351	1.22
x2 = 0.598	767.2	763.2	759.1	1255	1235	1216	1.603	1.425	1.276
x2 = 0.7021	773.9	769.8	765.6	1248	1229	1209	1.798	1.576	1.392
x2 = 0.8008	781.9	777.8	773.6	1242	1223	1204	2.068	1.785	1.566
x2 = 0.9002	792.7	788.5	784.3	1236	1217	1199	2.576	2.184	1.866
x2 = 0.9504	799.1	794.9	790.7	1233	1215	1196	2.989	2.508	2.122

CCCCCCCC [octane]
[2]
Details	mass density [kg/m3]	speed of sound [m/s]	viscosity [mPa·s]
293.15 K	702.6	1193	0.538
298.15 K	698.5	1173	0.506
303.15 K	694.5	1152	0.478

CCCCCCCC [octane] + CCC(C)O
[1], x2 = 0
Details	mass density [kg/m3]	speed of sound [m/s]	viscosity [mPa·s]
293.15 K	702.6	1193	0.538
298.15 K	698.5	1173	0.506
303.15 K	694.5	1152	0.478
